# System: acne vulgaris
# Assay: Open-label prospective human study of topical ALA-PDT in acne vulgaris
# Assay type: in vivo
# Conditions: after treatment, amelioration of acne (FIG. 5)
# Protocol: Photodynamic therapy with topical ALA composition as described in Example 1 was tested for the treatment of acne vulgaris, in an open-label prospective human study. 22 subjects with acne on their back were treated at 4 different sites with one of the following at each site: ALA plus red light (ALA-PDT), ALA alone, light alone, and untreated control. Half of the subjects were treated once; half were treated 4 times. 20% topical ALA of Example 1 was applied with 3 hr occlusion, and 150 J/cm^2 broad band light ([…]) was applied to the treated site. Sebum excretion rate and auto-fluorescence from follicular bacteria were measured before, and at 2, 3, 10, and 20 weeks after treatment. […]
# Subjects were randomly divided into single treatment group or multiple treatment group. At baseline, clinical evaluations, natural bacterial porphyrin fluorescence photography, and sebum excretion rate (SER) evaluation were performed. […] In both groups, subjects returned one week after treatments for clinical evaluations and at weeks 2, 3, 10 and 20 for clinical, fluorescence, and SER evaluations.
# Each subject's acne was visually assessed using an inflammatory acne score modified from that previously described (Burke et al., 1994). […] The numbers of comedo, inflammatory comedo, papules, pustules, nodules and cysts in each test area were recorded. […]
smiles,measurement,value
O=C(OOC(=O)c1ccccc1)c1ccccc1 [Benzoyl Peroxide],time until therapeutic effect occurred,eight to twelve
